Source: ChEMBL document CHEMBL5370619, “Targeting the Tyrosine Kinase 2 (TYK2) Pseudokinase Domain: Discovery of the Selective TYK2 Inhibitor ABBV-712” (J Med Chem, 2023)
Values after ≈ are worked out from the molar mass of the structure shown.

Assays:
[1] = Unbound clearance in cynomolgus monkey blood at 1 mg/kg, iv; type: ADME, organism-based, Macaca fascicularis; conditions: in vivo
[2] = target: Non-receptor tyrosine-protein kinase TYK2 (Homo sapiens, UniProt P29597); assay: Inhibition of TYK2 in human T-blast cells assessed as IL-12 induced STAT4 phosphorylation at Tyr694 residue preincubated for 30 mins followed by IL-12 stimulation and measured after 20 mins by AlphaScreen assay; type: cell-based, T-blast cell
Chain of Non-receptor tyrosine-protein kinase TYK2 (P29597 whole entry): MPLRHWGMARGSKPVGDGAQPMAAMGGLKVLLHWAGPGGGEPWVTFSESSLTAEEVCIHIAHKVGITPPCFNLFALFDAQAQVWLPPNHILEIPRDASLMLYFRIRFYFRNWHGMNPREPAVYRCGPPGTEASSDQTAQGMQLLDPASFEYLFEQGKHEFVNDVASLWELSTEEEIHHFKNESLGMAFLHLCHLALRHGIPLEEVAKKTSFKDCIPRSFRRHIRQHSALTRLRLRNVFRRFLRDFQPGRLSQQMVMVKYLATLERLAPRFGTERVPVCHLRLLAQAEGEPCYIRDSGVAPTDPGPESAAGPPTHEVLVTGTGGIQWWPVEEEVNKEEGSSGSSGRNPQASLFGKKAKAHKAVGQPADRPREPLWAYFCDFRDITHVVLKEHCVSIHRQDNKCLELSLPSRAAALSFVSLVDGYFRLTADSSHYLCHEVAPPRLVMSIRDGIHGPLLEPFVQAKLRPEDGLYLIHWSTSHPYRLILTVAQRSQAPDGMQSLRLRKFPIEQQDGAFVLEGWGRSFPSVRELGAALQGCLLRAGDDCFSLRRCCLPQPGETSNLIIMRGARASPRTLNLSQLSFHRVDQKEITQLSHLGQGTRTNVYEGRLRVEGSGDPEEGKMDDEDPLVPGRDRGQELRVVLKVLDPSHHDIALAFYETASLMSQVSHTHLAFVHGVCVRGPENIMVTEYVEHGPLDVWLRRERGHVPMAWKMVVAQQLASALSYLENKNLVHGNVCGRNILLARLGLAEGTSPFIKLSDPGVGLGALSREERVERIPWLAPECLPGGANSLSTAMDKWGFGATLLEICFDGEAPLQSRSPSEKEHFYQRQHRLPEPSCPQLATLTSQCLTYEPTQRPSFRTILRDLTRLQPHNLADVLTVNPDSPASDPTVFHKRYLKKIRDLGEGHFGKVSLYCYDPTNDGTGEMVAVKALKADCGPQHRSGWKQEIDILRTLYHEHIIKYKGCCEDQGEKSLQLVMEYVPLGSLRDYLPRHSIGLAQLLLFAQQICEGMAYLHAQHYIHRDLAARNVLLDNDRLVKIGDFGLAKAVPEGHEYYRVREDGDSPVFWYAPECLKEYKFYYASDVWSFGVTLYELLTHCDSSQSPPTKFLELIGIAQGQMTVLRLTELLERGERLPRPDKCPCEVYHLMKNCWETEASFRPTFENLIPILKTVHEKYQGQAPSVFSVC

[3] = In vivo inhibition of TYK2 in IL-12/IL-18 induced C57/B6 mouse model assessed as reduction in serum IFN-gamma production at 10 mg/kg,po pretreated for 30 mins prior to IL-12/IL-18 challenge and measured after 4 hrs by MSD assay; type: functional; conditions: C57/B6, 4.5 h, time 270 min
[4] = target: T1, CYP3A4 (Homo sapiens, UniProt P08684); assay: Induction of CYP3A4 in human hepatocytes assessed as fold increase in mRNA level at 10 uM incubated for 24 hrs by RT-qPCR analysis relative to control; type: ADME, cell-based, Hepatocyte; conditions: read-out: FC
T1 sequence (P08684 whole entry): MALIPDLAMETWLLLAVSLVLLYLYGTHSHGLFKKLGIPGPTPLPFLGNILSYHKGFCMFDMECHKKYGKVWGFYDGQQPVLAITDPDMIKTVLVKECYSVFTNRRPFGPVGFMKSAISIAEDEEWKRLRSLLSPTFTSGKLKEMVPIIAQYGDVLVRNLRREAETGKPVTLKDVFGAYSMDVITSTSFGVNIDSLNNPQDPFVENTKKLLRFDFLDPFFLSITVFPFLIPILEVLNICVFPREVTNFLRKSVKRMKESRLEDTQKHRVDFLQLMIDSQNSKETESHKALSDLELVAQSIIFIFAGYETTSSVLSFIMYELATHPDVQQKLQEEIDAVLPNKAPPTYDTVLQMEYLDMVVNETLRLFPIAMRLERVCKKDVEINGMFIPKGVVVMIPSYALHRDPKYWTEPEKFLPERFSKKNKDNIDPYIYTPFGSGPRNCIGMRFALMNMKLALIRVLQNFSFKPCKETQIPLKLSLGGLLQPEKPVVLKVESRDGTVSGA

[5] = target: T1, CYP3A4; assay: Time dependent inhibition of CYP3A4 in human liver microsomes using midazolam as substrate assessed as 1'-OH midazolam metabolite formation at 50 uM preincubated for 30 mins in presence of NADPH followed by substrate addition and measured after 15 mins by HPLC-MS/MS analysis relative to control; type: ADME, Microsome; conditions: probe midazolam, time 45 min, read-out: TDI
[6] = system: Mus musculus; assay: Anti-inflammatory activity in po dosed B10.RII mouse model of mouse IL-23 mini circle induced psoriasiform dermatitis assessed as decrease in ear thickness measured at 1 to 100 ng/ml of whole blood drug exposure level measured after 30 mins; type: functional, organism-based; conditions: 0.5 h
[7] = Unbound clearance in dog blood at 1 mg/kg, iv; type: ADME, organism-based, Canis lupus familiaris; conditions: in vivo
[8] = Unbound clearance in rat blood at 1 mg/kg, iv or 1 mg/kg,po; type: ADME, organism-based; conditions: in vivo
[9] = AUC (0 to infinity) in dog at 1 mg/kg,po; type: ADME, organism-based, Canis lupus familiaris; parameters: dose 1 mg/kg, route po; conditions: in vivo
[10] = system: Mus musculus; assay: Anti-inflammatory activity in B10.RII mouse model of mouse IL-23 mini circle induced psoriasiform dermatitis assessed as decrease in ear thickness at 100 mg/kg,po BID for 5 days by caliper analysis; type: functional; parameters: scale not given: the % may be the effect or the level left; conditions: time 5 day
[11] = target: Tyrosine-protein kinase JAK2 (Homo sapiens, UniProt O60674); assay: Inhibition of JAK2 in human UT7 cells assessed as reduction in erythropoietin induced STAT5 phosphorylation preincubated for 30 mins followed by erythropoietin stimulation and measured after 20 mins by AlphaScreen assay; type: cell-based
Chain of Tyrosine-protein kinase JAK2 (O60674 whole entry): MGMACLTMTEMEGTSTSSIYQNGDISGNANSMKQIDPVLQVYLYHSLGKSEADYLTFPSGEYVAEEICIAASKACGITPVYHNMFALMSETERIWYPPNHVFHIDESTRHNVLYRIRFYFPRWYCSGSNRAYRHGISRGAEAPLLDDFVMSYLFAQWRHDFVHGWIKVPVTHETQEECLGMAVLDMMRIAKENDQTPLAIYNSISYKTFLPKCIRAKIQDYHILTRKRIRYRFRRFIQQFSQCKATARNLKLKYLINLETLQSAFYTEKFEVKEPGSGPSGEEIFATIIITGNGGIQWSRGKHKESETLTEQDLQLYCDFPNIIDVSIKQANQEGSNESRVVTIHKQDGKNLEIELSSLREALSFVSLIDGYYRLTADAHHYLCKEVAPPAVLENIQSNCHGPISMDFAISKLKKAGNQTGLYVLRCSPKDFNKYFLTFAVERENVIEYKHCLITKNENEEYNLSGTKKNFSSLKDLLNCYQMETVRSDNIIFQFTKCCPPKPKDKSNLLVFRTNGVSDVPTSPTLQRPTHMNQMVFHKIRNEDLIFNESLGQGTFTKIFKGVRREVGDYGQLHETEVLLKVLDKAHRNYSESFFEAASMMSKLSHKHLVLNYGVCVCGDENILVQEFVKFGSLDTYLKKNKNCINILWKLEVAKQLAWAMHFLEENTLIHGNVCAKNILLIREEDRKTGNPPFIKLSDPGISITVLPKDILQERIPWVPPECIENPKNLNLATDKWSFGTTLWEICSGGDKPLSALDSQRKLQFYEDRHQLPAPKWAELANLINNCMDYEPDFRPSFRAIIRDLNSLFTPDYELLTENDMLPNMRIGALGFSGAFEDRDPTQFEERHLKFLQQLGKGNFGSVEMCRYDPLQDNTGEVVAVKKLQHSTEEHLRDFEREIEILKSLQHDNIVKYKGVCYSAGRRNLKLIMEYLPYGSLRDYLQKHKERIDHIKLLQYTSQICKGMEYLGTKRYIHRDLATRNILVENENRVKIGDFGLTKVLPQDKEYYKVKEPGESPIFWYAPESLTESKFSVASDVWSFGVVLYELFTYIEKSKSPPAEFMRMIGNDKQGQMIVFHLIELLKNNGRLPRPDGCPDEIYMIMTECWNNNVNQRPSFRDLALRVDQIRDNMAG

[12] = Oral bioavailability in dog at 1 mg/kg; type: ADME, organism-based, Canis lupus familiaris; conditions: in vivo
[13] = Metabolic stability in dog hepatocytes assessed as intrinsic clearance for unbound fraction of drug; type: ADME, cell-based, Canis lupus familiaris, Hepatocyte
[14] = Half life in cynomolgus monkey at 1 mg/kg, iv; type: ADME, organism-based, Macaca fascicularis; conditions: in vivo
[15] = In vivo inhibition of TYK2 in IL-12/IL-18 induced C57/B6 mouse model assessed as reduction in serum IFN-gamma production at 300 mg/kg,po pretreated for 30 mins prior to IL-12/IL-18 challenge and measured after 4 hrs by MSD assay; type: functional; conditions: C57/B6, 4.5 h, time 270 min
[16] = In vivo inhibition of TYK2 in IL-12/IL-18 induced C57/B6 mouse model assessed as reduction in serum IFN-gamma production at 100 mg/kg,po pretreated for 30 mins prior to IL-12/IL-18 challenge and measured after 4 hrs by MSD assay; type: functional; conditions: C57/B6, 4.5 h, time 270 min
[17] = Metabolic stability in human hepatocytes assessed as intrinsic clearance for unbound fraction of drug; type: ADME, cell-based, Hepatocyte
[18] = Thermodynamic solubility in PBS at pH 7.4; type: physicochemical; conditions: read-out: Therm_solubility
[19] = Metabolic stability in monkey hepatocytes assessed as intrinsic clearance for unbound fraction of drug; type: ADME, cell-based, Macaca mulatta, Hepatocyte; conditions: rhesus monkey
[20] = Oral bioavailability in rat at 1 mg/kg; type: ADME, organism-based; conditions: in vivo
[21] = In vivo inhibition of TYK2 in po dosed IL-12/IL-18 induced C57/B6 mouse model assessed as reduction in serum IFN-gamma production measured at 1 to 10000 ng/ml of whole blood drug exposure level measured after 30 mins; type: functional, organism-based; conditions: C57/B6, 0.5 h
[22] = AUC (0 to infinity) in cynomolgus monkey at 1 mg/kg,po; type: ADME, organism-based, Macaca fascicularis; parameters: dose 1 mg/kg, route po; conditions: in vivo
[23] = Volume of distribution at steady state in rat at 1 mg/kg, iv or 1 mg/kg,po; type: ADME, organism-based; conditions: in vivo, read-out: Vdss
[24] = target: T2, Tyrosine-protein kinase JAK3 (Homo sapiens, UniProt P52333); assay: Inhibition of JAK3 in human T-blast cells assessed as reduction in IL-2 induced STAT5 phosphorylation preincubated for 30 mins followed by IL-2 stimulation and measured after 20 mins by AlphaScreen assay; type: cell-based, T-blast cell
T2 sequence (P52333 whole entry): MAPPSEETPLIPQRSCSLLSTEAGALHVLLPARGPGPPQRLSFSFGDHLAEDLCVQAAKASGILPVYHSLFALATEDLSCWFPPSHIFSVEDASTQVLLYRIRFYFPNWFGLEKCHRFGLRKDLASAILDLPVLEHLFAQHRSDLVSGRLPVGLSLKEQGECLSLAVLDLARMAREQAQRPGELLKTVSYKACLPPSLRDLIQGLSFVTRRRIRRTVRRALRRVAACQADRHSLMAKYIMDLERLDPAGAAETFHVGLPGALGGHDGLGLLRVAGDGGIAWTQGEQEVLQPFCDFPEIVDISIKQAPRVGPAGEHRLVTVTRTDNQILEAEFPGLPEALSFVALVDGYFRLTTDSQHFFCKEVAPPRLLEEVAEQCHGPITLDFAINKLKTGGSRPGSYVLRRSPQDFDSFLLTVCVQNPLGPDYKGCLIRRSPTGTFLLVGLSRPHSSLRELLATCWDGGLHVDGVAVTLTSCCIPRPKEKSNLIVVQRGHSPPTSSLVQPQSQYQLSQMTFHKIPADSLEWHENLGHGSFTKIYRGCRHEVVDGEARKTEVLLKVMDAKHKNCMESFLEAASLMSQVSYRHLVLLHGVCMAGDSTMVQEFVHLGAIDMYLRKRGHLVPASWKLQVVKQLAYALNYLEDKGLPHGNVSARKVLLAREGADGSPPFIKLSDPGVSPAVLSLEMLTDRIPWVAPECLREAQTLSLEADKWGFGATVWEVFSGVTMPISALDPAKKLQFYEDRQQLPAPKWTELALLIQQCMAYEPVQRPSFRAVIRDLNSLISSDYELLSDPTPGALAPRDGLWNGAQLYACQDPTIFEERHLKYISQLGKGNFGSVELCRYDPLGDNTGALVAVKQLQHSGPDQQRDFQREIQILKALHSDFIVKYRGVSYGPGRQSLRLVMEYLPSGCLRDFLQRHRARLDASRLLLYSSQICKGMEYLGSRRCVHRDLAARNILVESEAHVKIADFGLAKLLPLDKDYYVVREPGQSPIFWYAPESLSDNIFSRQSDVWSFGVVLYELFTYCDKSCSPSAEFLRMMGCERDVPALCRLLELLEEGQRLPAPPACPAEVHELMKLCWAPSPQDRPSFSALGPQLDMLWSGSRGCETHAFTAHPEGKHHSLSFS

CL free [1]: 38.3 mL/min/kg | EC50 [2]: 0.195 µM | fold induction at 24 h, 10 µM [4]: 1.5 | inhibition at 0.25 h, 50 µM [5]: 22% | EC50 [6]: 0.104 µg/mL (≈ 0.23 µM) | CL free [7]: 7.67 mL/min/kg | CL free [8]: 68.3 mL/min/kg | AUC(0-inf) [9]: 2300 ng·h/mL | EC50 [11]: > 20 µM | bioavailability [12]: 88% | CL free [13]: 21.7 mL/min/kg | half-life [14]: 1.2 h | CL free [17]: 31.7 mL/min/kg | solubility thermodynamic [18]: 708 µM (≈ 320 µg/mL) | CL free [19]: 45 mL/min/kg | bioavailability [20]: 19% | IC50 [21]: 3.08 µg/mL (≈ 6.81 µM) | AUC(0-inf) [22]: 80 ng·h/mL | Vd [23]: 1.9 L/kg | EC50 [24]: > 20 µM
Compound: COCc1cc(-c2cn(C3COC3)c3cnc(NC(C)=O)cc23)nc([C@]2(OC)CCOC2)c1
inhibition in vivo at 10 mg/kg [3]: 24% | Activity [10]: 61% | inhibition in vivo at 300 mg/kg [15]: 95% | inhibition in vivo at 100 mg/kg [16]: 84%
